# A melting point compilation (Tetko et al.; mined from patent text by program, amines drawn as free bases though some values may be those of a salt)
row,Structure (SMILES),melting point [°C]
1,CC(=O)OC1CC2(C)C(=O)CCC2C2C=CC3=CC(=O)CCC3C12 (configuration not stated),246 to 248
2,COc1ccc(CCNC(=O)N(C)O)cc1OCc1ccccc1,125 to 126
3,CC1(C)CC(=O)Nc2cc3nc(-c4ccc(C(N)=O)cc4)[nH]c3cc21,317 to 319
4,COc1ccccc1-c1c(NC(=O)OC(C)(C)C)oc(=O)c2ccccc12,203 to 205
5,Nc1cccnc1N1CCN(C(=O)c2ccc(C(=O)O)cn2)CC1,137 to 140
6,Nc1cc2c(c3ccccc13)C(CCl)CN2C(=O)C(F)(F)F (configuration not stated),177
7,O=Cc1cc(Br)c(O)c(OCc2ccccc2)c1,160 to 162
8,CCCOc1cccc(CO)c1-c1ccc(OC)cc1O,102 to 103
9,COc1ccc(/C=C/c2nc3c([nH]2)c(=O)n(C)c(=O)n3C)c(OC)c1C,> 280
10,O=C1NCCC[C@@H]1NS(=O)(=O)c1ccccc1C(F)(F)F,161 to 163
11,C=CCOc1nc(Nc2ccc(OC)nc2)nc2c1ncn2CCCC,147 to 149
12,Nc1cc(-c2ccncc2)cc2nc(-c3ccccc3)nn12,207 to 210
13,CC(=O)Nc1cccc(C2=CCNc3c(C#N)cnn32)c1,251 to 254
14,NCCCn1cnc(-c2ccc(F)cc2)c1-c1ccncc1,81 to 82
15,COc1cc(OC)cc(N2CCN(C(=O)Nc3cc(C(C)(C)O)c(C)nc3OC)CC2)c1,146 to 148
16,CN(Cc1ccccc1)c1nc(Cl)ncc1F,47 to 49
17,COc1cc2c(cc1Cl)CCN(C)C[C@H]2c1ccccc1,91 to 92
18,O=c1[nH]c(=O)n(CCCCCCl)c2ccccc12,162 to 163
19,COC(=O)N1CCc2cc(S(=O)(=O)Cl)ccc21,113 to 114
20,NNC(=O)[C@@H]1C[C@]2(NC(=O)NC2=O)c2cc(F)ccc2O1,277 to 278
21,COc1ccc(CN2CCN(CCCN3CCN(Cc4ccc(OC)cc4)CC3)CC2)cc1,86 to 87
22,CC1=C(CCO)c2cc(F)ccc2/C1=C\c1ccc(S(C)(=O)=O)cc1,118
23,CC12CCC3c4ccc(O)cc4CCC3C1CC(O)C2=C(F)F (configuration not stated),225 to 227
24,NC(=O)C1(/C=C2\CN3C(=O)CC3O2)C=CC=CC1 (configuration not stated),197 to 199
25,COc1cc2ncc(OC3CCCCC3)nc2cc1OC1CCCCC1,75 to 78
26,CCCCCN(CCC12CC3CC(CC(C3)C1)C2)C(=O)NCCc1ccncc1,107 to 118

row,Structure (SMILES),melting point [°C]
1,COc1ccc(P2(=O)c3ccccc3CN2c2ccccc2)cc1OC (configuration not stated),84 to 86
2,C=C1CCC2C3CCC4CC(O)C(OC)CC4(C)C3CCC12C (configuration not stated),131 to 133
3,O=[N+]([O-])c1cn2c(n1)OC(COc1ccc(-c3csc(Cc4ccc(OC(F)(F)F)cc4)n3)cc1)CC2 (configuration not stated),222 to 224
4,C[C@H](NC(=O)c1c[nH]c2ncc(-c3cn(-c4cccc(C(F)(F)F)c4)cn3)nc12)C(C)(C)C,332 to 333
5,Cc1c(-c2cc(C(=O)OC(C)C)c(Cl)cc2F)nn(C)c1C(F)(F)F,72
6,NNc1cc(-c2ccccc2)c2cc(Cl)ccc2n1,156 to 157
7,CNc1nc(Br)cnc1N,121
8,Cc1noc(C)c1NCC#CI,139 to 140
9,Clc1nccc(N2CCC3(CC2)COc2ccccc23)c1Cl,177
10,CC(C)(C)C(=O)OCOC(=O)c1cn(CC(F)(F)F)c2cc3c(cc2c1=O)OCO3,190 to 191
11,CC(=O)N1CCc2cc(N)ccc21,183 to 185
12,O=C(O)CCC(Cc1ccc(Cl)cc1Cl)(C(=O)C=Cc1ccc(Cl)cc1)c1ccccc1 (configuration not stated),215 to 226
13,COC(=O)c1ccccc1-c1ncccc1N,188 to 189
14,CCOC(=O)c1cnn2c1c(Cl)nc1c(C)nn(C)c12,130 to 132
15,Cc1ccccc1-c1ccc(C(=O)N2Cc3ccc(C(=O)NCCc4cccc(Cl)c4)n3Cc3ccccc32)cc1C,174 to 176
16,COc1nc(C)nc(NC(=O)NS(=O)(=O)c2ccccc2-c2cnn(C)c2)n1,221 to 224
17,CC(=O)NC[C@H]1CN(c2ccc(N3CCC(C#N)(NNC(=O)c4cccs4)CC3)c(F)c2)C(=O)O1,226 to 230
18,CCOC(=O)c1ccccc1NCc1c(-c2ccccc2)nn(C)c1Cl,123
19,NC1C2CN(C(=O)Nc3ccc(F)cc3)CC12 (configuration not stated),150
20,Cc1c(-c2cc(F)cc(C(F)(F)F)c2)ccc2nc(N)nc(N)c12,225 to 226
21,CC(CC(=O)O)C(=O)c1ccc2c(c1)OCC(=O)N2 (configuration not stated),170 to 172
22,Fc1ccc(-c2nc3ccc(OC(F)(F)F)cc3[nH]2)cc1,158 to 160
23,CCN(CC)S(=O)(=O)c1ccc(Oc2ccc(S(=O)(=O)C(F)(F)F)cc2)cc1,83 to 84
24,Fc1ccccc1-c1cc2ccccc2[nH]1,97 to 98
25,O=C(NCCCn1ccnc1)Nc1cccc(C(F)(F)F)c1,105 to 108
26,CCN(CC)C(=O)c1ccc(C(=C2CCNCC2)c2cccc(OC)c2)cc1,> 90

row,Structure (SMILES),melting point [°C]
1,CCCC12CCC(=O)C=C1c1c(cc(CC(=O)O)c(Cl)c1Cl)C2 (configuration not stated),206 to 208
2,O=C(Nc1ccccc1)N1C[C@@H](P(c2ccccc2)c2ccccc2)[C@H](P(c2ccccc2)c2ccccc2)C1,165 to 167
3,O=[N+]([O-])c1ccc2[nH]cc(CCCI)c2c1,95 to 98
4,CN1CCCN=C1C(Cl)(Cl)[N+](=O)[O-],92 to 93
5,CCNC(=O)N(C)c1ccc(C(O)(C(F)(F)Cl)C(F)(F)Cl)cc1,155 to 157
6,CCOC(=O)C(C)Oc1ccc(Oc2cnc3cc(Cl)ccc3n2)cc1F (configuration not stated),110
7,O=C1NC(CCc2cc(C(F)(F)F)cc(C(F)(F)F)c2)C(Cc2c[nH]c3ccccc23)N1 (configuration not stated),194 to 195
8,COc1ccc(/C(=C/C(=O)O)c2cc(F)cc(F)c2)cc1,170 to 172
9,Cn1cc(-c2ccccc2)c(=O)c(-c2ccc(C(F)(F)F)cc2)c1,164 to 166
10,CS(=O)c1ncc2n1-c1ccc(Cl)cc1C(c1ccccc1F)=NC2 (configuration not stated),95 to 110
11,O=C(Nc1cccc2c1C(=O)c1c-2n[nH]c1C1CCN(C(=O)Oc2ccccc2)CC1)NN1CCOCC1,250 to 252
12,CC(C)Cn1nc(-c2ccc(O)cc2O)c2cccc(C(F)(F)F)c21,91 to 92
13,C=Cc1cc(CC(=O)O)ccc1OCc1ccc2ccccc2n1,173
14,O=C(O)c1ccc2c(c1)C(=O)C(=Cc1cccs1)O2,310 to 312
15,CC(=O)Oc1ccc(C2COc3c(ccc(OC(C)=O)c3C)C2O)cc1 (configuration not stated),135 to 137
16,ClC1=Nc2ccccc2Sc2c1csc2Cl,163 to 165
17,CC(=O)C(C)(C#N)c1ccc2c(c1)Cc1cccnc1O2 (configuration not stated),164
18,CCOc1cccc(C(=O)Nc2ccc(C(=O)N3CCCc4ccccc43)cc2)c1,170 to 172
19,CCOC(=O)c1cnc2c(cnn2Cc2ccco2)c1O,103 to 106
20,CCCCN(C(C)=O)C1NC(=O)N(c2cccc(C(F)(F)F)c2)C(=O)N1,146 to 148
21,O=C(NCc1cc(C(F)(F)F)cc(C(F)(F)F)c1)c1ccccc1-c1ccccc1,86 to 87
22,CNC(=O)C[C@@H](NC(=O)OCc1ccccc1)C(C)C,190 to 191
23,COC(=O)Oc1c(C(=O)c2ccc(Cl)cc2Cl)c(C)nn1C,86 to 88
24,CC1(N)CCN(c2ncc3ncnc(Nc4ccc(F)c(Cl)c4)c3n2)CC1,188 to 190
25,C=CCON(C)C(=O)c1nc(-c2ccc(Cl)c(OC)c2F)cc(N)c1Cl,134 to 136
26,CC1(C)OC(c2ccc(S(N)(=O)=O)c(Br)c2)=C(c2ccccc2)C1=O,128 to 132

row,Structure (SMILES),melting point [°C]
1,CCOc1cc2cc(CO)cc(-c3ccnc(-n4nc(C)c5ccccc5c4=O)c3)c2cc1OCC,220 to 221
2,COc1cccc(-n2c(=O)n(O)c(=O)c3cc(F)c(N4CCCC4)cc32)c1,216 to 218
3,CC(C)C#Cc1c(C#N)nn(-c2c(Cl)cc(C(F)(F)F)cc2Cl)c1N,210 to 212
4,O=C(O)c1ccc2c(c1)OCC(=O)N2Cc1ccccc1,230
5,CSc1c(C)[nH]c2ccc([N+](=O)[O-])cc12,198
6,COc1ccc(C=O)c(OC)c1C,51 to 52
7,CCOC(=O)c1cn(C[C@@H]2CN(c3ccc(N4CCC(=CC#N)CC4)c(F)c3)C(=O)O2)nn1,164 to 166
8,COc1ccc2c(=O)cc(-c3ccc(OCC(O)CNC4CC4)cc3)oc2c1 (configuration not stated),105 to 106
9,CCOCc1nc2c(N)nc3cc(OCc4ccccc4)ccc3c2n1CCCCN1CCCS1(=O)=O,225 to 227
10,CCCCCCCCCCCCCCCCCCNC(=O)OCC(CNS(=O)(=O)CCCCl)n1nnnc1C (configuration not stated),74 to 77
11,COC(=O)c1cn(C2CC2)c2cc(F)c(F)cc2c1=O,223 to 224
12,CCCC(=O)n1nc2c(c1NC)c(=O)n(CCC)c(=O)n2Cc1ccccc1,138 to 139
13,N=C(N)NC(=O)Cc1c(-c2ccccc2)cccc1-c1ccc2ccccc2c1,36.8 to 36.9
14,COCCNc1nc(C2C(=O)Nc3ccc(Br)cc32)c2cn(CCOC)nc2n1 (configuration not stated),> 300
15,CN1OCCN(c2cc(Cl)cc(Cl)c2)C1=O,105 to 106
16,Cc1c(S(=O)(=O)c2ccc(Cl)cc2)csc1-c1nc(-c2c(F)cccc2F)nn1C,183 to 185
17,NC(=O)N1C(=O)C(C(=O)c2cc(Cl)cs2)c2nc(Cl)ccc21 (configuration not stated),> 250
18,CCOCc1cc2cc(Cl)ccc2oc1=Nc1cccc(OC)c1,96.5 to 97.5
19,NS(=O)(=O)c1ccc(-n2sc3cc(F)ccc3c2=O)cc1,265 to 266
20,CCCc1nc2c(N)nc(C)c(C)c2n1CC(C)(C)NC(=O)c1ccccc1,208 to 210
21,CCOC(=O)c1coc2cc(NS(C)(=O)=O)c(Oc3ccccc3)cc2c1=O,167 to 168
22,CC(C(N)=NO)N(CCN(C(C)C(N)=NO)C(C)C(N)=NO)C(C)C(N)=NO (configuration not stated),191 to 192
23,CCN1N=C(c2ccc([N+](=O)[O-])cc2)C(C)(C)C1=O,118 to 120
24,CSc1ccc(N)c(C(=O)O)c1,145 to 150
